Measured values published in ChEMBL document CHEMBL1201862, “PubChem BioAssay data set” (2004).
Active and inactive are the calls of the source.

Key:
[1] = HIV-1 Vif–A3G interaction blockers – biochemical, TR-FRET, GST-Vif 1-94, biotin-A3G peptide, dose response retest, primary screen (AID 1117319); type: functional;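 note: TR-FRET signal of purified GST-Vif binding a biotinylated A3G peptide; inhibitors lower the FRET signal by blocking Vif and A3G binding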
[2] = target: T1, Replicative DNA helicase DnaB (Mycobacterium tuberculosis, UniProt P9WMR3); experiment: DnaB intein splicing inhibitors, dose response, biochemical, cell-free fluorescence (AID 449749); type: functional
T1 sequence (P9WMR3 whole entry): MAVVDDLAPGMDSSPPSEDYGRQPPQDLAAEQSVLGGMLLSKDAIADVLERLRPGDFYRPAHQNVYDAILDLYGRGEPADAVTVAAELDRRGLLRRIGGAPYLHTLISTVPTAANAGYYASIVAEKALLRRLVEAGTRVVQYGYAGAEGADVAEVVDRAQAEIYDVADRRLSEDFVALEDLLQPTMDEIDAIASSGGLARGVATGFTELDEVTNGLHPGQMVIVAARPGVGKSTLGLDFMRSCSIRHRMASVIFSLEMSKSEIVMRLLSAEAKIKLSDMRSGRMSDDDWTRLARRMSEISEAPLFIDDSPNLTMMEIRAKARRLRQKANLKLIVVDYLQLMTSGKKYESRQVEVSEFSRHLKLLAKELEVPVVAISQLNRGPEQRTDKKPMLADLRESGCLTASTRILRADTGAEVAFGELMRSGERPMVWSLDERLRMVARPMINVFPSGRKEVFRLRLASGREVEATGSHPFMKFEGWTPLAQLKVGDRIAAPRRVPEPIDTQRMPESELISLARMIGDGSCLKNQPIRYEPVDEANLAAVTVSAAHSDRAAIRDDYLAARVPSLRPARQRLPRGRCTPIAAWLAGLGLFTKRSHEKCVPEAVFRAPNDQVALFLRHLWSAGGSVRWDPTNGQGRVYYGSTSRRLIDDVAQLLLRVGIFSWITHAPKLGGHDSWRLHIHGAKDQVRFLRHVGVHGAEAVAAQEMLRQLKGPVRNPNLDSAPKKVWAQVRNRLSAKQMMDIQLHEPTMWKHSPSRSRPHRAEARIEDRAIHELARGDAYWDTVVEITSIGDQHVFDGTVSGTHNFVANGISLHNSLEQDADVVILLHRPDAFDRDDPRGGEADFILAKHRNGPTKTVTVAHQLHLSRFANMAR

[3] = target: T2, Protein RecA (Mycobacterium tuberculosis, UniProt P9WHJ3); experiment: Fluorescence Cell-Free Homogeneous Dose Retest to Identify Inhibitors of RecA-Intein Splicing Activity. [Related pubchem assays (depositor defined):AID2097, AID2223, AID489010, AID492950]; type: functional
T2 sequence (P9WHJ3 whole entry): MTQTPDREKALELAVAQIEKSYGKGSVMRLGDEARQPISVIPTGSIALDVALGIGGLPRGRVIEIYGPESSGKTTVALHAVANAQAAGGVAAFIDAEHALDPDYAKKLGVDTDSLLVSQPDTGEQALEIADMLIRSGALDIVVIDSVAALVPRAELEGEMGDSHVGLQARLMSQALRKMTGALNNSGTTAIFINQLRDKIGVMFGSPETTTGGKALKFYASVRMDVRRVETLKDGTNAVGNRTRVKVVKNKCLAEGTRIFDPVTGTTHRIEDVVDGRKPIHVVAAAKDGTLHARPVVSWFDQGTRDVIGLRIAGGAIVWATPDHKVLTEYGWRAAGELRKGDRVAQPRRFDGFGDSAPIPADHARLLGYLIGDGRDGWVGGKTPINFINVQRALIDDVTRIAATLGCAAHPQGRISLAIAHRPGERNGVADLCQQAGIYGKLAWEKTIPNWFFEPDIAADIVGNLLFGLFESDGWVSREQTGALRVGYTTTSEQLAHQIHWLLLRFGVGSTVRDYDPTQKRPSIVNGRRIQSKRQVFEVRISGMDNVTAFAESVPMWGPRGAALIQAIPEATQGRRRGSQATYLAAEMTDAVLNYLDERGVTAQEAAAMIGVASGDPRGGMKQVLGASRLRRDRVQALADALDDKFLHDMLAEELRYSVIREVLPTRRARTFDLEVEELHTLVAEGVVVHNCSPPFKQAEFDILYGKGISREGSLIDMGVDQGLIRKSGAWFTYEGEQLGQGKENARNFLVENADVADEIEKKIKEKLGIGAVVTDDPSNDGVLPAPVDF

[4] = target: Genome polyprotein (dengue virus type 2, UniProt P29990); experiment: flavivirus cap methylation enzyme inhibition – biochemical, confirmation dose response, primary screen (AID 588689); type: functional
[5] = tested on: HeLa; experiment: ATP-based viability loss in HeLa cells – cell-based, CellTiter-Glo luminescence, cherry-pick samples, cytotoxicity control for MITF activator project, dose response (AID 540259); type: functional; conditions: Homo sapiens
[6] = tested on: HEK293; experiment: cells; type: functional, cell-based; conditions: Homo sapiens
[7] = tested on: BJ; experiment: BJ-TERT-LT-ST fibroblast viability loss – cell-based, RAS-independent, luminescence, dose response (AID 1935); type: functional; conditions: Homo sapiens;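 note: BJ fibroblasts immortalized with TERT plus LT and ST oncogenes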
[8] = DRD fibroblast viability loss – cell-based, non-viral oncogenic, luminescence, dose response (AID 1934); type: functional; conditions: Homo sapiens
[9] = tested on: BJ; experiment: BJ-TERT fibroblast viability loss – cell-based, RAS-independent, luminescence, dose response (AID 1933); type: functional; conditions: Homo sapiens
[10] = tested on: BJ; experiment: cells; type: functional, cell-based; conditions: Homo sapiens
[11] = tested on: HEK293; experiment: inhibition of NOD1-driven NF-kB reporter – cell-based, luminescence, uHTS, primary screen (AID 1578); type: functional; conditions: Homo sapiens
[12] = tested on: HEK293; experiment: cells; type: functional, cell-based; conditions: Homo sapiens; remark: listed apart in the source
[13] = tested on: HEK293; experiment: NOD2 signaling inhibitors in MDP-stimulated cells, cell-based, uHTS, luminescence (AID 2001); type: functional; conditions: Homo sapiens
[14] = viability of uninfected HEp-2 cells – cell-based, HTS, cytotoxicity control for RSV inhibitor project, dose response (AID 2410); type: functional; conditions: human respiratory syncytial virus
[15] = cells
[16] = target: Cytochrome P450 2C9 (Homo sapiens, UniProt P11712)
[17] = target: Intestinal-type alkaline phosphatase (Homo sapiens, UniProt P09923); experiment: inhibition of human intestinal alkaline phosphatase – biochemical, dose response (AID 488876); type: functional
[18] = target: Intestinal-type alkaline phosphatase (Mus musculus, UniProt P24822); experiment: PubChem AID 488785; type: functional
[19] = target: T3, Alkaline phosphatase, tissue-nonspecific isozyme (Homo sapiens, UniProt P05186); experiment: TNAP enzyme inhibition by screening hits, dose response, selectivity assay for mouse IAP inhibitor project, biochemical, human TNAP, uHTS hits (AID 488906); type: functional
T3 sequence (P05186 whole entry): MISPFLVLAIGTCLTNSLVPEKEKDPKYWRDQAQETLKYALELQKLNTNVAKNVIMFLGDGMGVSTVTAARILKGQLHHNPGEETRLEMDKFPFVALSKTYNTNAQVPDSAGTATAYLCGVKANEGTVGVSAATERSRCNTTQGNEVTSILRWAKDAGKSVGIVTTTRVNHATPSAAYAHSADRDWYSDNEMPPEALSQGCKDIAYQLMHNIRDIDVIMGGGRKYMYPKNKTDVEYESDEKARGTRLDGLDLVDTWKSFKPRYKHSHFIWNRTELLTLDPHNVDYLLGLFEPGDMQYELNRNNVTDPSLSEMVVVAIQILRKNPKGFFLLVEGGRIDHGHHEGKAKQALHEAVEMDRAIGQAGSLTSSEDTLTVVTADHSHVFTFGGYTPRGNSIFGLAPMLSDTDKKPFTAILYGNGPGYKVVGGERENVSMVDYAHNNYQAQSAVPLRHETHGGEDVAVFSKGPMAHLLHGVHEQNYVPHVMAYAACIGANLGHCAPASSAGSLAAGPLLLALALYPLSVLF

[20] = Luminescence Cell-Based Dose Confirmation HTS to Identify Inhibitors of Platelet Dense Granule Release. [Related pubchem assays: 1663 (Primary HTS), 1678 (Summary of Project)]; type: functional
[21] = target: Luciferin 4-monooxygenase (Photinus pyralis, UniProt P08659); experiment: inhibition of purified Photinus pyralis luciferase – biochemical, luminescence, dose response (AID 1891)
[22] = target: T4, Rac GTPase-activating protein 1 (Homo sapiens, UniProt Q9H0H5); experiment: blockers of MgcRacGAP-driven Rac1 GTP hydrolysis – biochemical, ADP Hunter fluorescence, primary and confirmatory, confirmation (AID 624330); type: functional
T4 sequence (Q9H0H5 whole entry): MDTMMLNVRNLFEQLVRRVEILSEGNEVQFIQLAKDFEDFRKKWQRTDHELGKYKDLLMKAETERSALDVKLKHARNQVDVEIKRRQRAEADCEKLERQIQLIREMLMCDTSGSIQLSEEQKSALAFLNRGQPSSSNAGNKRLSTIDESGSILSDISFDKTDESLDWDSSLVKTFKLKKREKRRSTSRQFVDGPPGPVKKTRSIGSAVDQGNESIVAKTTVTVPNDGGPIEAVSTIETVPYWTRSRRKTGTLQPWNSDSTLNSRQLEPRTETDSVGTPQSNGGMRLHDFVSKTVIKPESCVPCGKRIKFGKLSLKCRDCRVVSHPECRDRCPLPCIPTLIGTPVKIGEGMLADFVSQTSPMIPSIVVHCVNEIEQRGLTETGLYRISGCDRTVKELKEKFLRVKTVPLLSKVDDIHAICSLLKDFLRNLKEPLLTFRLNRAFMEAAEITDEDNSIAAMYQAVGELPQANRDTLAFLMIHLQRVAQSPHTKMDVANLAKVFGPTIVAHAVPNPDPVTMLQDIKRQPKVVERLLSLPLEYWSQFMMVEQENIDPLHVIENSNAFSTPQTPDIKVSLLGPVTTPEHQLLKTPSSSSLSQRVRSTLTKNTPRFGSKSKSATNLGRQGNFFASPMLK

[23] = target: Large T antigen (Simian virus 40, UniProt P03070); type: functional, Betapolyomavirus macacae;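 note: Confirmatory-stage PubChem screen for compounds that inhibit SV40 T antigen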
Sequence of Large T antigen (P03070 whole entry): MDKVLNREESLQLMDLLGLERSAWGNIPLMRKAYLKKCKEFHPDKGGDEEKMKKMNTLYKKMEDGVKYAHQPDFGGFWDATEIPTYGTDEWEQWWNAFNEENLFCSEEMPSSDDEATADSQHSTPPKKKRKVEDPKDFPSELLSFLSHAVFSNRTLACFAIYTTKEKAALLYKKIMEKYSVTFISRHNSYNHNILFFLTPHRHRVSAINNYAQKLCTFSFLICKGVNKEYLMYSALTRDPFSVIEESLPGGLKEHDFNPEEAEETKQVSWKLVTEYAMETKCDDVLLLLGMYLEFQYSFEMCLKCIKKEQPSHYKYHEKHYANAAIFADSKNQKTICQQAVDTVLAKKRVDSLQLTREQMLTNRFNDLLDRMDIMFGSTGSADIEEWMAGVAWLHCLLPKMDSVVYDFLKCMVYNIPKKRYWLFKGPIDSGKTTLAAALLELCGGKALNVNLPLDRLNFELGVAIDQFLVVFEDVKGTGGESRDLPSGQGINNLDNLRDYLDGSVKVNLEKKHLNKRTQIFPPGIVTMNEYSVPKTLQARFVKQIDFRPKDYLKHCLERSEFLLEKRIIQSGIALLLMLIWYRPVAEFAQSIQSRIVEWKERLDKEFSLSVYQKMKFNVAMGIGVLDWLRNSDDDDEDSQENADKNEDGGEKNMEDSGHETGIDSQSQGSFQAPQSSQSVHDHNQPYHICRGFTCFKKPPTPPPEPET

Sequence of Intestinal-type alkaline phosphatase (Mus musculus, UniProt P24822) (P24822 whole entry): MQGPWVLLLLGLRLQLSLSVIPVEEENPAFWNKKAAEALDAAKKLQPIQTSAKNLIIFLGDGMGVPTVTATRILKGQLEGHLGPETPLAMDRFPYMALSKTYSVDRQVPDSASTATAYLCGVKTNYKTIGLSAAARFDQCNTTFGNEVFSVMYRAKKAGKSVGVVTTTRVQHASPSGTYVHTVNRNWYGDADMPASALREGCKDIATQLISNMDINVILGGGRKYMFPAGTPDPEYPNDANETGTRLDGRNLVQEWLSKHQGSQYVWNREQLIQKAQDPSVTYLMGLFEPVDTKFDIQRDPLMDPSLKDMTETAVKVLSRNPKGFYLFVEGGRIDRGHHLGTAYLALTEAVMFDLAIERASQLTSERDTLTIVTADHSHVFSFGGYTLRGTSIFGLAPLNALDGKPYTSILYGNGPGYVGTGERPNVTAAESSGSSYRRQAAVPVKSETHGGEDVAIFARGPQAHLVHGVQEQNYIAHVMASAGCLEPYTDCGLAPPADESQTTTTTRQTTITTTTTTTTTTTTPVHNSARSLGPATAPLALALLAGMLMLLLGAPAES
Sequence of Intestinal-type alkaline phosphatase (Homo sapiens, UniProt P09923) (P09923 whole entry): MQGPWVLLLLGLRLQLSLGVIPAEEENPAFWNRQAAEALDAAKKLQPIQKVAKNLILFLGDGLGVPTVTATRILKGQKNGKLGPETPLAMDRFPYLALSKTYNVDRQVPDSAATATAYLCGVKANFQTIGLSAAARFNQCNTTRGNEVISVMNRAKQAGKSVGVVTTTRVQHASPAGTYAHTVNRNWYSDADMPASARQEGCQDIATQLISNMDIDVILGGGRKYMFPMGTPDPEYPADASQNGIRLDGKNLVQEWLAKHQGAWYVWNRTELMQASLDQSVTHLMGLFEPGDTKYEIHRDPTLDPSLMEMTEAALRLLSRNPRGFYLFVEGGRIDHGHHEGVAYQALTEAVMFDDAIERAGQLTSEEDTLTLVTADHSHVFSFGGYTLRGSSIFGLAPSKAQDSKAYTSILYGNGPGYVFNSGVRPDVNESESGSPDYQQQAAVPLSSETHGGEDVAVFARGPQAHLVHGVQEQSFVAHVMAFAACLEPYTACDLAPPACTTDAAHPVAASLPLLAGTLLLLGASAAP
Sequence of Genome polyprotein (P29990 2492-3391 limits assumed): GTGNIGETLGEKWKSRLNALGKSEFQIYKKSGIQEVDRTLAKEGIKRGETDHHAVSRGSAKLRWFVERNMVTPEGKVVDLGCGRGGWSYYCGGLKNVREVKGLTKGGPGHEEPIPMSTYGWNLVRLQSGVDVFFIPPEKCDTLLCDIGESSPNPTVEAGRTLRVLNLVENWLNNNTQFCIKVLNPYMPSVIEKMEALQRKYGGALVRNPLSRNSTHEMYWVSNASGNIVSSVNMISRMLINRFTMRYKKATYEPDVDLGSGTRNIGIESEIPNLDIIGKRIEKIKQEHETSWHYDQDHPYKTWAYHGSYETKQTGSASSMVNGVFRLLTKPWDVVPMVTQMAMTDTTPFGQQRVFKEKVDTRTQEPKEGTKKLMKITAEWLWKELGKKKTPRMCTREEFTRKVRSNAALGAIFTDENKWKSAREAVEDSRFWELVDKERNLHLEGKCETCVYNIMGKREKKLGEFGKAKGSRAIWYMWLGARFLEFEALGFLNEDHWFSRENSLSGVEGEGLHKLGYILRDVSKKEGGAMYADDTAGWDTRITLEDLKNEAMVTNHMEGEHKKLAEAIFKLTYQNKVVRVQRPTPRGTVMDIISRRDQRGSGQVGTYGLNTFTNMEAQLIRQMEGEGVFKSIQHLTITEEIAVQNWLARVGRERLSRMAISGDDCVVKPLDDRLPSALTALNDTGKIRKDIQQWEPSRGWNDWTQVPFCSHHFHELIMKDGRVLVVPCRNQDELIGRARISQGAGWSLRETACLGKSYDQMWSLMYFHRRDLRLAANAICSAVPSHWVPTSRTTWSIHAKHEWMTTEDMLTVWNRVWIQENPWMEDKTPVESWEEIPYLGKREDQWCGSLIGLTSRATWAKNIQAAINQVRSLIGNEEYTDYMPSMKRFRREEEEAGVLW
Sequence of Cytochrome P450 2C9 (P11712 whole entry): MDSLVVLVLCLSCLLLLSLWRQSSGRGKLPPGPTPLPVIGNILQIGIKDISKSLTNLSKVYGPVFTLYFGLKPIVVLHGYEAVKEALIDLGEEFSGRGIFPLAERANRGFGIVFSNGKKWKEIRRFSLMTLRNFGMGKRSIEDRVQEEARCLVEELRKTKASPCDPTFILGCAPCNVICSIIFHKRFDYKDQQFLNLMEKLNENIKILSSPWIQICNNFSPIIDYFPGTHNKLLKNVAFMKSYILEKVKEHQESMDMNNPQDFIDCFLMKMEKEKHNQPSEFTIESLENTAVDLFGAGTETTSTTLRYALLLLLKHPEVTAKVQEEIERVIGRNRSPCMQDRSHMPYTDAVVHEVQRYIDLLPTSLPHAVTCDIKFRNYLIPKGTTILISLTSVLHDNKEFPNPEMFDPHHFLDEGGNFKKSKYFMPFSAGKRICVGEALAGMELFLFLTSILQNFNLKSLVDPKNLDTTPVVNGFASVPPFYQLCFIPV
Sequence of Luciferin 4-monooxygenase (P08659 whole entry): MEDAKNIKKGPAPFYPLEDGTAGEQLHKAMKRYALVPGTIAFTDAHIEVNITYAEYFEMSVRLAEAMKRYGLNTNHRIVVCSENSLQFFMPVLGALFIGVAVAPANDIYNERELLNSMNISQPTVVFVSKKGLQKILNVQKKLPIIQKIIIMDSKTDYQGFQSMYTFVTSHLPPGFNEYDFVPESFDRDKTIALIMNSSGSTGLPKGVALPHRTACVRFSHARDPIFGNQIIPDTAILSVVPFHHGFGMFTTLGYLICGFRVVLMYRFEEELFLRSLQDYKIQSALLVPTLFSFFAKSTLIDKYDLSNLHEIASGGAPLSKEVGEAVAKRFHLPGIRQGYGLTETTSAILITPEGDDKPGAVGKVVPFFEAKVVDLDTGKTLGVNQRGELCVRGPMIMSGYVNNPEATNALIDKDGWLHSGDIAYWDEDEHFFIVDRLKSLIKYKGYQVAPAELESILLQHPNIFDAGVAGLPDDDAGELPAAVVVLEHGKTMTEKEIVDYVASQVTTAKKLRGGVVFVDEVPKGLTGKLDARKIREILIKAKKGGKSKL

C/C(=C\C(=O)c1ccc(Br)cc1)N1CCCCC1
IC50 [1]: > 100 µM (active)

Cc1nn(-c2ccccc2)c2c1C(c1cccs1)C(C#N)=C(N)O2 (configuration not stated)
AC50 [2]: 7 µM (active) | EC50 [3]: 1.83 µM (active) | IC50 [4]: > 100 µM (active)

O=c1oc(-c2cccs2)nc2sc3c(c12)CCCCC3
AC50 [5]: 47.1 µM (active)

Cc1ccc(OC(=O)c2cccc(S(=O)(=O)N3CCCC3)c2)c(-n2nc3ccccc3n2)c1
AC50 [5]: 260 µM (active)

CCc1nc(N2CCN(C(=O)CCl)CC2)c2c3c(sc2n1)CC(C)CC3 (configuration not stated)
IC50 [6]: > 20 µM (inactive) | AC50 [2]: 1.92 µM (active) | EC50 [7]: 5.72 µM (inconclusive) | EC50 [8]: 5.84 µM (active) | EC50 [3]: 0.729 µM (active) | EC50 [9]: 1.62 µM (active) | EC50 [10]: 9.44 µM (inconclusive) | EC50 [11]: > 20 µM (inactive) | IC50 [12]: 8.57 µM (active) | IC50 [13]: 12 µM (inactive)

COc1ccccc1-c1cc2nc(C)cc(C)n2n1
CC50 [14]: 22.5 µM (active) | IC50 [15]: 18.8 µM (active)

Cc1ccc(C(c2c(O)n3c(nc2=O)SCC3)c2c(O)n3c(nc2=O)SCC3)cc1
IC50 [4]: 84.2 µM (active)

Cc1ccc(-n2nnnc2SCn2nnc3ccccc3c2=O)cc1
IC50 [1]: > 100 µM (active)

CCN(CC(=O)Nc1c(F)cccc1F)C(=O)CSC(=S)N1CCCC1
IC50 [1]: > 100 µM (active)

COc1ccc(-c2ccc3c(N)c(C(=O)NC(C)C)sc3n2)cc1OC
CC50 [14]: > 50 µM (active) | IC50 [15]: 35.9 µM (active)

Clc1ccc(-c2nnc(CCc3ccccc3)o2)c(Cl)c1
AC50 [5]: 78.9 µM (active) | AC50 [16]: 39.8 µM (inconclusive)

C=CCn1cc(CN2CCC(C(=O)Nc3cccc(-c4cccc(Cl)c4)c3)CC2)c(C)n1
IC50 [17]: 14.3 µM (active) | IC50 [18]: 10.3 µM (active) | IC50 [19]: 5.84 µM (active)

O=C1c2cccc(O)c2C(=O)c2c(O)cc(CO)cc21 [ALOE-EMODIN]
IC50 [17]: > 100 µM (inactive) | IC50 [18]: 2.88 µM (active) | IC50 [19]: > 100 µM (inactive)

Cc1nonc1C(=O)N/N=C/c1ccc(O)c(O)c1
EC50 [20]: 0.868 µM (active) | EC50 [21]: 4.26 µM (active) | IC50 [17]: 14 µM (active) | IC50 [18]: 9.92 µM (active) | IC50 [22]: 18.6 µM (active) | IC50 [23]: 3.81 µM (active) | IC50 [19]: 16.8 µM (active)

O=S(=O)(c1ccc2c(c1)OCCO2)N1CCC(c2nc(O)c3nnn(Cc4c(F)cccc4Cl)c3n2)CC1
CC50 [14]: 34.2 µM (active) | IC50 [15]: 9.34 µM (active)

COC(=O)N/N=C/c1ccc(-c2cccc(Cl)c2)o1
CC50 [14]: 28.3 µM (active) | IC50 [15]: 24.9 µM (active)
